We go through 28 compounds from patent US20110112097A1, “Substituted imidazoline-2,4-diones, process for preparation thereof, medicaments comprising these compounds and use thereof” (SANOFI-AVENTIS, priority 2008, published 2011).

The target in test [1] is T1, hCB1R (Homo sapiens, UniProt P21554). Description: Binding to the CB1 receptor ([3H]-SR141716A displacement). The protocol: Binding to the CB1 Receptor:
Test compounds: The compounds (3 μl, 10 mM, 100% DMSO), pipetted into 96-well PP microtiter plates, were diluted with 27 μl of 100% DMSO (dimethyl sulfoxide). Proceeding from this solution, further 3-fold dilution steps were undertaken by transferring 10 μl in each case to a new PP microtiter plate and adding a further 20 μl of 100% DMSO. In each case 6 μl of these solutions were transferred into new 96-well PP microtiter plates and made up with 144 μl of assay buffer. The end concentrations ranged from 10 μM to 0.005 μM.
Negative control: AM 251, dissolved in assay buffer with 1% DMSO, was added to the dilution series in the microtiter plates as a control. The end concentration was 1 μM.
Blank control: assay buffer with 1% DMSO was added to the dilution series of the microtiter plates as a blank control.
Summary of the Assay Parameters:
High control: ^3H binding without addition of the compound Low control: ^3H binding in the presence of 1 μM AM 251
The values were calculated using the corrected raw data.
The values reported were obtained as average values of a double determination. The IC50 values were calculated from the measurements with the program Xlfit, formula 205. Ki values were obtained from the IC50 and Kd values utilizing the Cheng-Prusoff equation:
[formula] • Literature: Cheng, Y.-C., and Prusoff, W. H. (1973) Biochem. Pharmacol 22, 3099-3108

Test [2] concerns the target T1, hCB1R. Description: In vitro functional assay with recombinant cells (FLIPR, intracellular Ca2+), CB1. More on the design: expressed in transfected cells; host or cells: HEK293. The class given is cell-based. The protocol:
(§1) In vitro functional assays with recombinant cells:
(§2) Function-testing assays were performed by means of the FLIPR technique (“Fluorometric Imaging Plate Reader”, Molecular Devices Corp.).
(§3) To this end, ligand-induced changes in the intracellular concentration of Ca^2+ in recombinant HEK293 cells, which expressed both a cannabinoid receptor (CB1 or CB2) and G-protein Galpha16, were determined. For the studies, cells were sown into 96-well microtiter plates (60 000 cells/well) and left to grow overnight. The medium was removed and the cells were incubated in buffer which contained the fluorescent dye Fluo-4. After this loading with dye, the cells were washed, test substance was added dissolved in buffer, the mixture was incubated for 20 minutes, a known cannabinoid receptor agonist as a reference agonist was added in buffer and, finally, the changes in the intracellular Ca^2+ concentration were measured in the FLIPR unit.

Another test has as its target T2, hCB2R (Homo sapiens, UniProt P34972).
T2 construct: expressed in transfected cells; host or cells: HEK293
The experiment in a line: In vitro functional assay with recombinant cells (FLIPR, intracellular Ca2+), CB2. The class given is cell-based. Conditions: recombinant HEK293 cells expressing CB2 and G-protein Galpha16; 20 min preincubation, then reference agonist; Ca2+ change (Fluo-4). The protocol: as §1, §2, §3
Results were presented as the percentage change relative to the control (0%: analogous experiment without test substance and without reference agonist, i.e. only with buffer; 100%: analogous experiment without test substance, but with reference agonist in excess), and used to calculate dose/action curves, and IC50 values were determined

Where [3] appears, read: CHO-K1/cannabinoid CB1 protein 2 μg/well, [3H]-SR141716A 0.5 nM, Ki from IC50 by Cheng-Prusoff, average of double determination, read-out: hCB1R, binding Ki.
The mark [4] stands for this setting: recombinant HEK293 cells expressing CB1 and G-protein Galpha16, 20 min preincubation, then reference agonist, Ca2+ change (Fluo-4), read-out: hCB1R: FLIPR, IC50.

pIC50, pKi: −log10 of the molar value. Counter-ions that a name gives are not always drawn. Like-named read-outs stand apart in the source and are kept apart here.

T2 sequence (P34972 whole entry): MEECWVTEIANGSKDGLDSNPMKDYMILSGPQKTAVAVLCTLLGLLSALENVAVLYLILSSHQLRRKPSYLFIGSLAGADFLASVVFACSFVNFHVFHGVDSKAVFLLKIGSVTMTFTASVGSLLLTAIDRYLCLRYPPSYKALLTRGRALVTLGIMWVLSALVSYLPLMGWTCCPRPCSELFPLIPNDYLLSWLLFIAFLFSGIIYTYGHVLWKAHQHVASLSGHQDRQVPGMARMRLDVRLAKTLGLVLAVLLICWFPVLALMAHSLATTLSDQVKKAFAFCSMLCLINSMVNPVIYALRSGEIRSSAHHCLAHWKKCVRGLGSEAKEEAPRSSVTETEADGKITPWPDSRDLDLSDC
T1 sequence (P21554 whole entry): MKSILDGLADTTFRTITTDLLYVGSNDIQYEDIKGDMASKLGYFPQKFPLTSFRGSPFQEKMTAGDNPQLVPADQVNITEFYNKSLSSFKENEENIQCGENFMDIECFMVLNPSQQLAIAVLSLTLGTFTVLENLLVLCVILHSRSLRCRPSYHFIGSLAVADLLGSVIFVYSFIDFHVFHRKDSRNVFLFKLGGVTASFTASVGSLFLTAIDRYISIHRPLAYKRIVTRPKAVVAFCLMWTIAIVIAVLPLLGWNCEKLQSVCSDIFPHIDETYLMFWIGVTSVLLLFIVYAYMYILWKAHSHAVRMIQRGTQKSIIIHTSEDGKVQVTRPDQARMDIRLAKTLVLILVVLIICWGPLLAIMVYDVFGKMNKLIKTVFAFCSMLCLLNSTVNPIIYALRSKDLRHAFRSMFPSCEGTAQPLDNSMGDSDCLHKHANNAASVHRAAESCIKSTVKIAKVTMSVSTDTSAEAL

`COC(=O)c1ccc(Cc2ccccc2CN2C(=O)N(c3ccc(C#N)c(C(F)(F)F)c3)C(=O)C2(C)C)cc1` [Example 143, methyl 4-{2-[3-(4-cyano-3-trifluoromethylphenyl)-5,5-dimethyl-2,4-dioxoimidazolidin-1-ylmethyl]benzyl}benzoate]: the pKi on hCB1R [1] (setting [3]) was 7.89. For the same compound, the pIC50 at hCB1R [2] is 7.19.
Take `N#Cc1ccc(N2C(=O)N(Cc3ccccc3Cc3ccccc3)C3(CCCCCC3)C2=O)cc1C(F)(F)F` [Example 116, 4-[1-(2-Benzylbenzyl)-2,4-dioxo-1,3-diazaspiro[4.6]undec-3-yl]-2-trifluoromethylbenzonitrile]: the pKi at hCB1R [1] (setting [3]) was 7.59.
`CC1(C)C(=O)N(c2cc(Cl)cc(Cl)c2)C(=O)N1Cc1ccccc1Cc1ccccc1` [Example 65]: at hCB1R [1] (setting [3]), the pKi is 6.82.
With `CC1(C)C(=O)N(c2ccnc(Cl)c2)C(=O)N1Cc1ccccc1Cc1ccccc1` [Example 117, 1-(2-Benzylbenzyl)-3-(2-chloropyridin-4-yl)-5,5-dimethylimidazolidine-2,4-dione], the pKi on hCB1R [1] (setting [3]) is 7.03.
With `CCc1cccc(N2C(=O)N(Cc3ccccc3Cc3ccccc3)C(C)(C)C2=O)c1` [Example 1, 1-(2-Benzylbenzyl)-3-(3-ethylphenyl)-5,5-dimethylimidazolidine-2,4-dione], the pKi at hCB1R [1] (setting [3]) was 6.66.
Turning to `CC1(C)C(=O)N(c2cccc(C(F)(F)F)c2)C(=O)N1Cc1ccccc1Cc1ccccc1` [Example 7], at hCB1R [1] (setting [3]), the pKi is 7.02.
Take `CC1(C)C(=O)N(c2ccc(F)c(C(F)(F)F)c2)C(=O)N1Cc1ccccc1Cc1ccccc1` [Example 79]: the pIC50 at hCB2R was below 5.00; at hCB1R [2] (setting [4]), 6.99. This compound gave a pKi on hCB1R [1] of 7.36.
`CC1(C)C(=O)N(c2ccc(Oc3ccc(Cl)cc3)c(C(F)(F)F)c2)C(=O)N1Cc1ccccc1Cc1ccccc1` [Example 101, 1-(2-Benzylbenzyl)-3-[4-(4-chlorophenoxy)-3-trifluoromethylphenyl]-5,5-dimethylimidazolidine-2,4-dione]: the pKi on hCB1R [1] (setting [3]) is 7.00.
As to `N#Cc1ccc(N2C(=O)N(Cc3ccccc3Cc3ccccc3)C3(CCC3)C2=O)cc1C(F)(F)F` [Example 107, 4-[5-(2-Benzylbenzyl)-6,8-dioxo-5,7-diazaspiro[3.4]-oct-7-yl]-2-trifluoro-methylbenzonitrile], the figures for the pIC50 on hCB2R and at hCB1R [2] were below 5.00 and 7.37, respectively. At hCB1R [1], this compound gave a pKi of 7.92.
As for `CN1CCC2(CC1)C(=O)N(c1ccc(C#N)c(C(F)(F)F)c1)C(=O)N2Cc1ccccc1Cc1ccccc1` [Example 111, 4-[1-(2-Benzylbenzyl)-8-methyl-2,4-dioxo-1,3,8-triazaspiro[4.5]dec-3-yl]-2-trifluoromethylbenzo-nitrile; trifluoroacetate], the pKi at hCB1R [1] (setting [3]) is 7.21.
On the same count and under the same terms, the figure for `CC1(C)C(=O)N(c2ccc(Cl)c(Cl)c2)C(=O)N1Cc1ccccc1Cc1ccccc1` [Example 64] is 7.01; for `CC1(C)C(=O)N(c2cccc(SC(F)(F)F)c2)C(=O)N1Cc1ccccc1Cc1ccccc1` [Example 13] it is 7.18; for `COC(=O)c1ccc(C(=O)c2ccc(CN3C(=O)N(c4ccc(F)c(C(F)(F)F)c4)C(=O)C3(C)C)cc2)cc1` [Example 151, Methyl 4-{4-[3-(4-fluoro-3-trifluoromethylphenyl)-5,5-dimethyl-2,4-dioxo-imidazolidin-1-ylmethyl]-benzoyl}benzoate] it is 7.21.
Consider `CC1(C)C(=O)N(c2cccc(C#N)c2)C(=O)N1Cc1ccccc1Cc1ccccc1` [Example 16], for which, at hCB1R [1] (setting [3]), the pKi is 6.76.
For the compound `N#Cc1ccc(N2C(=O)N(Cc3ccccc3Cc3ccccc3)C3(CCCC3)C2=O)cc1C(F)(F)F` [Example 106, 4-[1-(2-Benzylbenzyl)-2,4-dioxo-1,3-diazaspiro[4.4]-non-3-yl]-2-trifluoro-methylbenzonitrile], the pIC50 is below 5.00 on hCB2R and 7.12 on hCB1R [2]. The same compound gave a pKi on hCB1R [1] of 7.96.
In the case of `CC1(C)C(=O)N(c2ccc(C#N)c(C(F)(F)F)c2)C(=O)N1Cc1ccccc1Cc1ccccc1` [Example 88, 4-[3-(2-benzylbenzyl)-4,4-dimethyl-2,5-dioxoimidazolidin-1-yl]-2-trifluoromethylbenzonitrile], the pIC50 is below 4.52 on hCB2R and 7.89 on hCB1R [2]. On hCB1R [1], the pKi is 8.70.
Turning to `CC1(C)C(=O)N(c2ccc(C#N)c(C(F)(F)F)c2)C(=O)N1Cc1ccc(F)cc1C(=O)c1ccc(C(F)(F)F)cc1` [Example 155, 4-{3-[4-Fluoro-2-(4-trifluoromethylbenzoyl)-benzyl]-4,4-dimethyl-2,5-dioxoimidazolidin-1-yl}-2-trifluoromethylbenzonitrile], on hCB1R [1] (setting [3]), the pKi was 7.16.
With `CC(C)(C)c1cc(N2C(=O)N(Cc3ccccc3Cc3ccccc3)C(C)(C)C2=O)ccc1C#N` [Example 118, 4-[3-(2-Benzylbenzyl)-4,4-dimethyl-2,5-dioxo-imidazolidin-1-yl]-2-tert-butylbenzonitrile], the pIC50 at hCB2R was below 5.00; on hCB1R [2] (setting [4]), 6.94. Moreover, on hCB1R [1], the pKi was 8.30.
With `CC1(C)C(=O)N(c2cc(C(F)(F)F)ccc2F)C(=O)N1Cc1ccccc1Cc1ccccc1` [Example 11], the pKi at hCB1R [1] (setting [3]) is 6.88.
Turning to `CC1(C)C(=O)N(c2ccnc(C(F)(F)F)c2)C(=O)N1Cc1ccccc1Cc1ccccc1` [Example 119, 1-(2-Benzylbenzyl)-5,5-dimethyl-3-(2-trifluoromethylpyridin-4-yl)imidazolidine-2,4-dione; hydrochloride], the pKi at hCB1R [1] (setting [3]) is 7.64. The pIC50 at hCB1R [2] was 7.01.
As for `CC1(C)C(=O)N(c2ccc(C#N)nc2)C(=O)N1Cc1ccccc1Cc1ccccc1` [Example 123, 543-(2-Benzylbenzyl)-4,4-dimethyl-2,5-dioxo-imidazolidin-1-yl]pyridine-2-carbonitrile; hydrochloride], the pKi at hCB1R [1] (setting [3]) is 6.85.
On to `CC1(C)C(=O)N(c2ccc(C#N)c(S(F)(F)(F)(F)F)c2)C(=O)N1Cc1ccccc1Cc1ccccc1` [Example 102, 4-[3-(2-Benzylbenzyl)-4,4-dimethyl-2,5-dioxo-imidazolidin-1-yl]-2-pentafluorosulfanyl-benzonitrile], for which the pKi at hCB1R [1] (setting [3]) was 7.72. Further, the pIC50 at hCB1R [2] was 7.35.
Consider `CC1(C)C(=O)N(c2ccc(F)c(F)c2)C(=O)N1Cc1ccccc1Cc1ccccc1` [Example 41], for which, at hCB1R [1] (setting [3]), the pKi is 6.73.
With `N#Cc1ccc(N2C(=O)N(Cc3ccccc3Cc3ccccc3)C3(CCCCC3)C2=O)cc1C(F)(F)F` [Example 114, 4-[1-(2-Benzylbenzyl)-2,4-dioxo-1,3-diazaspiro[4.5]dec-3-yl]-2-trifluoromethylbenzonitrile], the pKi on hCB1R [1] (setting [3]) was 7.20.
Take `CC1(C)C(=O)N(c2ccc(C#N)c(C(F)(F)F)c2)C(=O)N1Cc1ccc(F)cc1C(=O)c1ccc(Cl)cc1` [Example 139, 4-{3-[2-(4-Chloro-benzoyl)-4-fluorobenzyl]-4,4-dimethyl-2,5-dioxo-imidazolidin-1-yl}-2-trifluoromethylbenzonitrile]: on hCB1R [1] (setting [3]), the pKi is 7.11.
As for `CSc1cccc(N2C(=O)N(Cc3ccccc3Cc3ccccc3)C(C)(C)C2=O)c1` [Example 4], at hCB1R [1] (setting [3]), the pKi is 6.66.
Regarding `COC(=O)c1ccc(Cc2ccccc2CN2C(=O)N(c3ccc(F)c(C(F)(F)F)c3)C(=O)C2(C)C)cc1` [Example 144, methyl 4-{2-[3-(4-fluoro-3-trifluoromethylphenyl)-5,5-dimethyl-2,4-dioxoimidazolidin-1-ylmethyl]benzyl}benzoate], the pKi at hCB1R [1] (setting [3]) is 7.43.
Turning to `CC1(C)C(=O)N(c2ccc(C#N)c(C(F)(F)F)c2)C(=O)N1Cc1ccc(F)cc1C(=O)c1ccc(C#N)cc1` [Example 150, 4-{3-[2-(4-Cyano-benzoyl)-4-fluorobenzyl]-4,4-dimethyl-2,5-dioxo-imidazolidin-1-yl}-2-tri-fluoromethylbenzonitrile], the pKi at hCB1R [1] (setting [3]) was 7.74. Further, the pIC50 on hCB1R [2] was 7.96.
